Results as given in paper PMC10510102, “Efficient Ligand Discovery Using Sulfur(VI) Fluoride Reactive Fragments” (ACS Chemical Biology, 2023).
pKi: −log10 of the molar value.

Experiments:
[1] = target: T1, BCL6 (Homo sapiens, UniProt P41182, C67R/C84N/C8Q); experiment: Kinetic analyses of covalent modification, intact protein LC-MS; format: binding; details: 0.5 μM BCL6; 5-100 μM SF; 4 °C
T1 construct: hBCL6-Flag-6H-Avi 3Cmut (5–129) produced as part of the GSK/GenScript collaboration; Flag (C); 6H (His6) (C); Avi (C)
From the text: (§1) The fluorescence intensity data from the individual replicates of each sample type were normalized and identically truncated within GraphPad Prism 5.0.4.11 These values were subsequently fitted to equation (4) corresponding to a Boltzmann sigmoid in order to obtain the melting temperature (“V50”; T m) of the protein:
(§2) Y=BOTTOM+((TOP+BOTTOM)/(1+exp((V50–X)/SLOPE))) (4)
(§3) The three obtained T m values were averaged to give a final T m value in each case. The normalized fluorescence data for the three replicates of each sample were averaged to yield a single dataset for each case, which were then plotted in GraphPad Prism 5.0.4 to give the plots shown in the manuscript.11
(§4) Table S9. Thermal melting temperatures of unmodified and covalently modified BCL6 BTB/POZ domain as determined by differential scanning fluorimetry measurements.
(§5) The arithmetic mean and standard deviation from three replicates are shown.
(§6) Hit Chemotype Protein Species Tm / °C ΔT m / °C […]
(§7) meta-Substituted Benzamide BCL6 + 2g 70.4 ± 0.3 +11.7
(§8) Azetidinyl Fragments BCL6 + 2h 55.5 ± 0.1 −3.2 […]
8.3. Protocol for kinetic analyzes (BCL6) […]
BCL6 BTB domain (BCL65–129(C8Q,C67R,C84N)-FLAG, 10 µM) was incubated with each compound (500 µM, eq. 0.25% v/v DMSO) in 20 mM Tris pH 8.5 and 150 mM NaCl (2 mL) at 20 °C for 6 h. […] The protein-fragment complex was concentrated to >6 mg/mL, as determined by spectrophotometry. […]

[2] = target: BCL6 BTB/POZ domain (Homo sapiens, UniProt P41182, C67R/C84N/C8Q); experiment: Conventional differential scanning fluorimetry (DSF); format: binding; design: hBCL6-Flag 3Cmut (5-129) produced in house; FLAG (C); made in house; details: for Tm: 10 μM protein, covalent complex (500 μM SF, 6 or 24 h) or 200 μM GSK137, mean ± SD, three replicates; for ΔTm: relative to unmodified BCL6
Experimental: We subsequently analyzed protein-fragment interactions using differential scanning fluorimetry (DSF) to explore the impact of these binding events on protein stability.[45] […] […]; this illustrates the impact of covalent modification on protein–ligand binding. […]
8.2. Conventional differential scanning fluorimetry (DSF)
BCL6-SF covalent complex preparation:
SFs 2f–i, 2p, 2q, 2s, and 2t in DMSO-d 6 (200 mM stock) or pure DMSO-d 6 were added to crystallizable BCL6 BTB/POZ domain (10 µM) in 20 mM Tris pH 8.5 and 200 mM NaCl. The reactions were incubated at 20 °C for 6 h (meta-substituted benzamide fragments) or 24 h (azetidinyl/piperidinyl fragments). Final concentrations: 10 µM protein, 500 µM SF, DMSO 0.25% v/v in 200 µL. Unreacted compound and DMSO-d 6 were removed by buffer-exchanging protein solutions into 20 mM Tris pH 8.5, 200 mM NaCl and 5% v/v glycerol inside Vivaspin 500 PES Centrifugal Concentration units. The protein was concentrated to 0.6–1.3 mg/mL within the units, according to UV-vis absorption spectrophotometry via a Nanodrop ND-1000 instrument. Protein was flash frozen using a dry ice/ethanol bath prior to […]
Differential scanning fluorimetry assay:
GSK137 (40 mM stock) or pure DMSO-d 6 were added to crystallizable BCL6 BTB/POZ domain (11 µM) in 20 mM Tris pH 8.5, 200 mM NaCl and 5% v/v glycerol to give solutions containing: 11 µM protein, DMSO 0.63% v/v and 222 µM GSK137 (where applicable).
Concentrated protein-SF complexes were also thawed and diluted to 11 µM in 20 mM Tris pH 8.5, […] and 5% v/v glycerol.
SYPRO Orange dye (Invitrogen S6650) in extra dilution buffer (50×, eq. 1% v/v DMSO) was added to give assay-ready solutions with final concentrations: 10 µM protein, SYPRO 5×, DMSO 0.1% v/v in volume 80 µL for the protein-SF covalent complexes or 10 µM protein, SYPRO 5×, DMSO 0.6% v/v in volume 100 µL with and without 200 µM GSK137.
Each solution was aliquoted (3 × 20 µL) into wells of an opaque 384-well PCR microplate (Axygen PCR-384-LC480-W) and coated with silicone oil DC 200 (5 µL; Fluka Chemicals 85413). The microplate was centrifuged (1 min, 200 g) prior to insertion into a Fluodia T70 spectrophotometer (Photal Instruments). The fluorescence intensity was detected (emission wavelength: […]) as the plate instrument interior was heated from 27–75 °C using a temperature stepping mode (waiting time before measurement: 60 s; fluorescence measurement interval: 45 s). The approximate temperature gradient was 0.5 °C min-1.
as §1, §2, §3, §4, §5, §6, §7, §8
8.3. Protocol for kinetic analyzes (BCL6)
The (resynthesized and purified) SF hits (2f–i) were plated into seven Greiner 384 white low volume plate from a 10 mM source in DMSO. Differing volumes were added such that the final concentrations for each compound would be: 100, 50, 20, 10, or 5 µM after adding 15 µL of protein stock solution per well. […]

Compound | pKi [1] | Tm [2] [°C] | ΔTm [2]
CC(=O)Nc1cccc(CNC(=O)Cc2ccc(S(=O)(=O)F)cc2)c1 [2g] | 4.10 | 70.4 ± 0.3 | +11.7 °C
O=C(Cc1ccc(S(=O)(=O)F)cc1)N1CC(Oc2ccc(F)c(F)c2)C1 [2h] | – | 55.5 ± 0.1 | −3.2 °C
NC(=O)c1ccccc1OC1CN(C(=O)Cc2ccc(S(=O)(=O)F)cc2)C1 [2i] | – | 59.9 ± 0.4 | +1.2 °C
CN(C)C(=O)Nc1cccc(CNC(=O)Cc2ccc(S(=O)(=O)F)cc2)c1 [2f] | 4.25 | 66.6 ± 0.3 | +7.9 °C
